Measured values published in patent publication EP4745118A1, “HYDROXAMIC ACID COMPOUND OR PHARMACEUTICALLY ACCEPTABLE SALT THEREOF, AND USE THEREOF AND PREPARATION METHOD THEREFOR” (priority 2023, dated 2025).
In brackets after ≈: the same amount, converted by molar mass. Read-outs that look alike come from different tables or passages of the source.

Legend:
ICR strain mice = test: Acute toxicity in mice, single tail vein injection; type: in vivo; conditions: one week
Description: Healthy ICR strain mice weighing 20-21 g were taken for the experiment, randomly divided into groups of 3 mice per group, regardless of gender. Each compound was administered via a single tail vein injection at a volume of 20 mL/kg. Animal responses were observed immediately postadministration and monitored for one week. The number of animal deaths was recorded and mortality rates calculated.

Shigella flexneri = test: In vitro antibacterial activity, agar dilution method (MIC); type: cell-based; conditions: 18 hours
Description: According to the relevant operating procedures of the Clinical Laboratory Standards Institute (CLSI) in the United States, an antimicrobial susceptibility testing was conducted using the agar dilution method. A 1920 µg/mL stock solution was serially diluted twofold with sterile water to obtain dilutions of 960, 480, 240, 120, 60, 30, 15, 7.5, 3.75, 1.88, 0.94, 0.47 µg/mL, and 1 mL of the dilution was taken respectively from the dilutions with different concentrations and added to a Petri dish, to which 14 mL of melted MH agar medium was added and mixed thoroughly, and the final concentration of the drug in the petri dish is 128, 64, 32, 16, 8, 4, 2, 1, 0.5, 0.25, 0.12, 0.06, and 0.03 µ g/mL, respectively. The agar was allowed to solidify and set aside for later use.
The test bacteria were propagated in broth and adjusted to a turbidity of 0.5 McFarland (approximately 1-2 × 10^8 CFU/mL) using a turbidimeter before inoculation. The 0.5 McFarland bacterial solution was then diluted 10-fold in broth (approximately 1-2 × 10^7 CFU/mL). A multipoint inoculator was used to inoculate the above bacterial solution onto a series of plates containing different concentrations of drugs (with an inoculation amount of approximately 10^4 CFU per inoculation site). After incubation at a constant temperature of 35°C for 18 hours, results were observed. The minimum concentration of drugs contained in sterile growth plates was determined as the Minimal Inhibitory Concentration (MIC).

[1] = system: Escherichia coli ATCC BAA2469 (CRE, NDM-1-producing); test: In vivo antibacterial activity, intraperitoneal infection in mice (survival over 7 days); conditions: for effective dose of in vivo antibacterial activity: mice with intraperitoneal infection by Escherichia coli ATCC BAA2469, intravenous; for Animal survival rate / Number of surviving animals: mice, one intravenous administration 1 hour post-infection, 7 days; for Number of surviving animals: 5 animals per group
Description: Mice were randomly grouped based on body weight, with 5 mice in each group, regardless of gender. The infectious bacteria was Escherichia coli ATCC BAA2469 (CRE, NDM-1-producing). The test bacterial solution was diluted with 5% high-activity dry yeast. Mice received intraperitoneal injection of 0.5 mL of 100% minimum lethal dose (100% MLD) bacterial solution. One intravenous administration was given at 1 hour post-infection at a dose volume of 10 mL/kg. Animal survival numbers were observed over 7 days, and survival rates were calculated.

[2] = ATCC12022, Shigella flexneri ATCC 12022, 35°C, read-out: MIC

SMILES | Mortality rate (ICR strain mice; dose 150 mg/kg) | Number of deaths (ICR strain mice; dose 150 mg/kg) | Mortality rate (ICR strain mice; dose 200 mg/kg) | Number of deaths (ICR strain mice; dose 200 mg/kg) | MIC (Shigella flexneri; [2]) | effective dose of in vivo antibacterial activity [1] | Animal survival rate ([1]; dose 0.35 mg/kg) | Number of surviving animals ([1]; dose 0.35 mg/kg) | Animal survival rate ([1]; dose 1.4 mg/kg) | Number of surviving animals ([1]; dose 1.4 mg/kg) | Mortality rate (ICR strain mice; dose 100 mg/kg) | Number of deaths (ICR strain mice; dose 100 mg/kg) | other results
COC[C@@H]1C[C@H]1C#CC#Cc1ccc(C(=O)N[C@H](C(=O)NO)C(C)(C)N)cc1 [Ia, N-(S)-3-amino-1-hydroxyamino-3-methyl-1-oxobutan-2-yl-4-[[(1R,2R)-2-(methoxymethylene)cyclopropyl]but-1,3-diynyl]benzamide] | 0% | 0 individuals | 100% | 3 individuals | 0.06 µg/mL (≈ 0.156 µM) | below 1.5 mg/kg | 0% | 0 individuals | 80% | 4 individuals |  |  | 
COCC1CC1C#CC#Cc1ccc(C(=O)NC(C(=O)NO)C(C)(C)N)cc1 (mixture of isomers) [Ia/Ib racemate] | 100% | 3 individuals |  |  |  | below 1.5 mg/kg | 0% | 0 individuals | 40% | 2 individuals | 0% | 0 individuals | MIC (Shigella flexneri; Shigella flexneri ATCC 12022, 35°C): 0.12 µg/mL; Animal survival rate ([1]; dose 0.7 mg/kg): 0%; Number of surviving animals ([1]; dose 0.7 mg/kg): 0 individuals
CC(C)(N)[C@H](NC(=O)c1ccc(C#CC#C[C@@H]2C[C@H]2CO)cc1)C(=O)NO [ACHN-975] | 100% | 3 individuals |  |  | 0.12 µg/mL (≈ 0.325 µM) | > 1.5 mg/kg |  |  |  |  | 67% | 2 individuals | Mortality rate (ICR strain mice; dose 50 mg/kg): 0%; Number of deaths (ICR strain mice; dose 50 mg/kg): 0 individuals; Animal survival rate ([1]; dose 1.5 mg/kg): 0%; Number of surviving animals ([1]; dose 1.5 mg/kg): 0 individuals; Animal survival rate ([1]; dose 3 mg/kg): 60%; Number of surviving animals ([1]; dose 3 mg/kg): 3 individuals; Animal survival rate ([1]; dose 6 mg/kg): 100%; Number of surviving animals ([1]; dose 6 mg/kg): 5 individuals
COC[C@H]1C[C@H]1C#CC#Cc1ccc(C(=O)N[C@H](C(=O)NO)C(C)(C)N)cc1 [Ic, N-(S)-3-amino-1-hydroxyamino-3-methyl-1-oxobutan-2-yl-4-[[(1R,2S)-2-(methoxymethylene)cyclopropyl]but-1,3-diynyl]benzamide] | 33% | 1 individuals | 100% | 3 individuals | 0.06 µg/mL (≈ 0.156 µM) | below 1.5 mg/kg | 0% | 0 individuals | 80% |  | 0% | 0 individuals | 
COC[C@H]1C[C@@H]1C#CC#Cc1ccc(C(=O)N[C@H](C(=O)NO)C(C)(C)N)cc1 [Ib, N-(S)-3-amino-1-hydroxyamino-3-methyl-1-oxobutan-2-yl-4-[[(1S,2S)-2-(methoxymethylene)cyclopropyl]but-1,3-diynyl]benzamide] | 0% | 0 individuals | 100% | 3 individuals | 0.12 µg/mL (≈ 0.313 µM) | below 1.5 mg/kg |  |  | 60% |  |  |  | 
CO[C@H]1CCC[C@@H]1C#CC#Cc1ccc(C(=O)N[C@H](C(=O)NO)C(C)(C)N)cc1 [A] | 0% | 0 individuals | 100% | 3 individuals | 0.25 µg/mL (≈ 0.629 µM) | > 3 mg/kg |  |  |  |  |  |  | Animal survival rate ([1]; dose 1.5 mg/kg): 0%; Number of surviving animals ([1]; dose 1.5 mg/kg): 0 individuals; Animal survival rate ([1]; dose 3 mg/kg): 0%; Number of surviving animals ([1]; dose 3 mg/kg): 0 individuals; Animal survival rate ([1]; dose 6 mg/kg): 20%; Number of surviving animals ([1]; dose 6 mg/kg): 1 individuals
COC[C@@H]1C[C@@H]1C#CC#Cc1ccc(C(=O)N[C@H](C(=O)NO)C(C)(C)N)cc1 [Id, N-(S)-3-amino-1-hydroxyamino-3-methyl-1-oxobutan-2-yl-4-[[(1S,2R)-2-(methoxymethylene)cyclopropyl]but-1,3-diynyl]benzamide] | 67% | 2 individuals | 100% | 3 individuals | 0.06 µg/mL (≈ 0.156 µM) | below 1.5 mg/kg | 0% | 0 individuals | 60% | 3 individuals | 0% | 0 individuals | Animal survival rate ([1]; dose 0.7 mg/kg): 0%; Number of surviving animals ([1]; dose 0.7 mg/kg): 0 individuals
